Assay results reported in US20230014907A1, “INHIBITORS OF APOL1 AND METHODS OF USING SAME” (Vertex Pharmaceuticals Incorporated, priority 2020, published 2023).
pIC50: −log10 of the molar value.

Biological target: T1, G1 APOL1 (Homo sapiens, UniProt O14791, I384M/S342G)
T1 construct: expressed in transfected cells
T1 sequence (O14791 28-398 S342G/I384M): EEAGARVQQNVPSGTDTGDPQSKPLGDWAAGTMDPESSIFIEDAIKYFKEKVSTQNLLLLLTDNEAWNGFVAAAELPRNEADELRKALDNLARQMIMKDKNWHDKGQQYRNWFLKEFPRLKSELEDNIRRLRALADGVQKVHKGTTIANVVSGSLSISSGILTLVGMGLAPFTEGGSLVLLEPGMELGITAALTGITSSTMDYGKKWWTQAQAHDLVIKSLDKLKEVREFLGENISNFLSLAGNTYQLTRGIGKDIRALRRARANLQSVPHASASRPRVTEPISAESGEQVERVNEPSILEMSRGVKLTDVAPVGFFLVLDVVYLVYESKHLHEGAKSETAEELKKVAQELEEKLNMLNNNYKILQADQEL
Experiment: Acute APOL1 Thallium Assay with Inducible Stable Clones of HEK 293 Cells
Type: cell-based
Settings: HEK 293 inducible stable clones, G1 APOL1; read-out: Thallium Assay (IC50)
How it was run: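 HEK293 T-Rex cells with a stable tetracycline-inducible G1 APOL1 construct (clone DC3.25) were induced with tetracycline at plating, 26000 cells per well, then incubated at 37° C. They were loaded with an AM-ester thallium-sensitive dye and stimulated with Tl+. The fluorescence rise measured Tl+ influx through APOL1 pores.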

`Cc1nccn1CC(=O)NCCc1c(-c2ccc(F)cc2)[nH]c2c(F)cc(F)cc12` [Compound 380] and `O=C(Cc1nccs1)NCCc1c(-c2ccc(F)cc2)[nH]c2c(F)cc(F)cc12` [Compound 376] cannot be ordered by pIC50: under 6.00 for the first, under 6.00 for the second.

`C=CC(=O)NCCc1c(-c2ccc(F)cc2)[nH]c2c(F)cc(F)cc12` [Compound 417] and `CNC(=O)C(=O)NCCc1c(-c2ccc(F)cc2)[nH]c2c(F)cc(F)cc12` [Compound 359] cannot be ordered by pIC50: under 6.00 for the first, under 6.00 for the second.

`O=C(NCCc1c(-c2ccc(F)cc2)[nH]c2c(F)cc(F)cc12)c1ccncc1` [Compound 402] and `O=C(NCCc1c(-c2ccc(F)cc2)[nH]c2c(F)cc(F)cc12)c1cncs1` [Compound 384] cannot be ordered by pIC50: under 6.00 for the first, under 6.00 for the second.

`NC(=O)CCC(=O)NCCc1c(-c2ccc(F)cc2)[nH]c2c(F)cc(F)cc12` [Compound 343] and `NC(=O)CC(=O)NCCc1c(-c2ccc(F)cc2)[nH]c2c(F)cc(F)cc12` [Compound 358] cannot be ordered by pIC50: under 6.00 for the first, under 6.00 for the second.

`O=C(CCCc1c(-c2ccc(F)cc2)[nH]c2c(F)cc(F)cc12)NCC1CNC(=O)C1` (centres unmarked) [Compound 252] and `O=C(NCCc1c(-c2ccc(F)cc2)[nH]c2c(F)cc(F)cc12)C1CNC1=O` (centres unmarked) [Compound 350] cannot be ordered by pIC50: under 6.00 for the first, under 6.00 for the second.

`O=C(NCCc1c(-c2ccc(F)cc2)[nH]c2c(F)cc(F)cc12)NCC1CC(F)(F)C1` [Compound 289] and `O=C(NCCc1c(-c2ccc(F)cc2)[nH]c2c(F)cc(F)cc12)NCC1CCCOC1` (centres unmarked) [Compound 293] cannot be ordered by pIC50: under 6.00 for the first, under 6.00 for the second.

First: O=C(NCCc1c(-c2ccc(F)cc2)[nH]c2c(F)cc(F)cc12)OCC1(C(=O)O)CC1 [Compound 426, 1-[2-[5,7-difluoro-2-(4-fluorophenyl)-1H-indol-3-yl]ethylcarbamoyloxymethyl]cyclopropanecarboxylic acid]
Second: O=C(NCCc1c(-c2ccc(F)cc2)[nH]c2c(F)cc(F)cc12)C1(F)CCC1 [Compound 406]
The pIC50 of the first is lower: under 6.00 for the first, 6.00 to 6.60 for the second.

`O=C(COc1cccnc1)NCCc1c(-c2ccc(F)cc2)[nH]c2c(F)cc(F)cc12` [Compound 373] and `CN(CCO)C(=O)NCCc1c(-c2ccc(F)cc2)[nH]c2c(F)cc(F)cc12` [Compound 302] cannot be ordered by pIC50: under 6.00 for the first, under 6.00 for the second.

`O=C(CCc1c(-c2ccc(F)cc2)[nH]c2c(F)cc(Cl)cc12)N[C@H](CO)C(F)(F)F` [Compound 205] and `CC(C)[C@@H](CO)NC(=O)NCCc1c(-c2ccc(F)cc2)[nH]c2c(F)cc(F)cc12` [Compound 269] cannot be ordered by pIC50: under 6.00 for the first, under 6.00 for the second.

`CS(=O)(=O)CCNC(=O)NCCc1c(-c2ccc(F)cc2)[nH]c2c(F)cc(F)cc12` [Compound 287] and `COCC1(CNC(=O)NCCc2c(-c3ccc(F)cc3)[nH]c3c(F)cc(F)cc23)CC1` [Compound 292] cannot be ordered by pIC50: under 6.00 for the first, under 6.00 for the second.

`C[C@@H]1NC(=O)N(CCc2c(-c3ccc(F)cc3)[nH]c3c(F)cc(F)cc23)C1=O` [Compound 257, (5S)-3-[2-[5,7-difluoro-2-(4-fluorophenyl)-1H-indol-3-yl]ethyl]-5-methyl-imidazolidine-2,4-dione] and `O=C(NCCc1c(-c2ccc(F)cc2)[nH]c2c(F)cc(F)cc12)C1COC1` [Compound 413] cannot be ordered by pIC50: under 6.00 for the first, under 6.00 for the second.

Compared with `CC(C)(CO)NC(=O)OCCc1c(-c2ccc(F)cc2)[nH]c2c(F)cc(F)cc12` [Compound 435], `CCOCCNC(=O)OCCc1c(-c2ccc(F)cc2)[nH]c2c(F)cc(F)cc12` [Compound 455] is lower in pIC50: over 6.60 for the first, 6.00 to 6.60 for the second. The first is the more potent here.

`O=C(NCCc1c(-c2ccc(F)cc2)[nH]c2c(F)cc(F)cc12)C1CC(O)(C(F)(F)F)C1` (centres unmarked) [Compound 314] and `O=C(NCCc1c(-c2ccc(F)cc2)[nH]c2c(F)cc(F)cc12)C1CC(O)C1` (centres unmarked) [Compound 348] cannot be ordered by pIC50: under 6.00 for the first, under 6.00 for the second.

`O=C(NCCc1c(-c2ccc(F)cc2)[nH]c2c(F)cc(F)cc12)C1(O)COC1` [Compound 342] and `CC(CC(N)=O)NC(=O)NCCc1c(-c2ccc(F)cc2)[nH]c2c(F)cc(F)cc12` (racemic) [Compound 271] fall in the same range of pIC50: 6.00 to 6.60 for the first, 6.00 to 6.60 for the second.

With `C[C@]1(O)C[C@@H](NC(=O)OCCc2c(-c3ccc(F)cc3)[nH]c3c(F)cc(F)cc23)C1` [Compound 489] the pIC50 was under 6.00.
